SMILES strings stand for the structures.

One may read the IC50 as the concentration at which inhibition is half-maximal.

In this test the target is human CD73 enzyme (Homo sapiens (Human), UniProt P21589). In words: Biochemical CD73 Assay. The conditions noted are these: recombinant human CD73 2 nM, AMP 40 μM, Malachite Green free phosphate detection. The method, then:
Activity of recombinant CD73 was measured by quantification of free phosphate using the Malachite Green detection system (R&D Systems #DY996). Test compounds were solubilized in DMSO and dispensed into 384-well polystyrene plates in a 8-point 3× titration in duplicates. Then, 10 μL of 4 nM human CD73 enzyme (Novoprotein #C446) in phosphate- free assay buffer (10 mM HEPES, pH 7.4, 125 mM NaCl, 1 mM KCl, 10 mM glucose, 2 mM MgCl2) was added to the plates. The compound and enzyme were incubated for 15 min at RT. Then, 10 μL of 80 μM AMP (Sigma Aldrich #A1752) in the assay buffer was added and the reaction mixture was incubated for […] at 37° C. The final concentrations of CD73 and AMP in the reaction were 2 nM and 40 μM, respectively. The reaction was stopped by adding 5 μL of Malachite Green reagent A and incubating for 10 mM at RT, followed by addition of 5 μL of Malachite Green reagent B and incubation for 20 mM at RT. Absorbance was then read at 620 nm with the Flexstation spectrophotometer (Molecular Devices). The IC50 values were determined using a four-parameter nonlinear regression curve fit.

Chain of human CD73 enzyme (P21589 27-574): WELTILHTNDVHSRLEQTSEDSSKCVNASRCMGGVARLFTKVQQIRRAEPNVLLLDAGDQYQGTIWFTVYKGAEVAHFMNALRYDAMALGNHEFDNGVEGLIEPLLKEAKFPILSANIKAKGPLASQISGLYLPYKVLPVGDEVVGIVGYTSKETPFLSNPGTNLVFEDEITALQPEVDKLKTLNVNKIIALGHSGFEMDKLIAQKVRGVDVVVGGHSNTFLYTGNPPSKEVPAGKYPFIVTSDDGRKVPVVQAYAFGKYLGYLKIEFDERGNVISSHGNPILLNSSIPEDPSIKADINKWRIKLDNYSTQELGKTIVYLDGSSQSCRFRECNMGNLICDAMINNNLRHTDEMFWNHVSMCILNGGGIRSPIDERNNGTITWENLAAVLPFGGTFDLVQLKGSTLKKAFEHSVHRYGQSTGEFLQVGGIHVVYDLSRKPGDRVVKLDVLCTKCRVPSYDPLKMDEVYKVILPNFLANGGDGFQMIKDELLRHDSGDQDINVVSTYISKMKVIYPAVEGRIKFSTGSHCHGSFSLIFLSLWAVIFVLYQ

Take `COC[C@@](OC[C@H]1O[C@@H](n2ncc3c(NC4CCCC4)nc(Cl)nc32)[C@H](O)[C@@H]1O)(C(=O)NS(=O)(=O)N(C)C)P(=O)(O)O` [Example 1, ((S)-2-(((2R,3S,4R,5R)-5-(6-Chloro-4-(cyclopentylamino)-1H-pyrazolo[3,4-d]pyrimidin-1-yl)-3,4-dihydroxytetrahydrofuran-2-yl)methoxy)-1-((N,N-dimethylsulfamoyl)amino)-3-methoxy-1-oxopropan-2-yl)phosphonic Acid]: the IC50 came out at 6.4 nM.

As for `COC[C@](OC[C@H]1O[C@@H](n2ncc3c(NC4CCCC4)nc(Cl)nc32)[C@H](O)[C@@H]1O)(C(=O)NS(=O)(=O)N(C)C)P(=O)(O)O` [Example 2, ((R)-2-(((2R,3S,4R,5R)-5-(6-chloro-4-(cyclopentylamino)-1H-pyrazolo[3,4-d]pyrimidin-1-yl)-3,4-dihydroxytetrahydrofuran-2-yl)methoxy)-1-((N,N-dimethylsulfamoyl)amino)-3-methoxy-1-oxourouan-2-yl)phosphonic Acid], the IC50 worked out at 114 nM.

As to `COC[C@@](OC[C@H]1O[C@@H](n2ncc3c(NC4CCCC4)nc(Cl)nc32)[C@H](O)[C@@H]1O)(C(=O)NS(=O)(=O)N1CCCC1=O)P(=O)(O)O` [Example 3], the IC50 is 0.48 nM.

Regarding `COC[C@@](OC[C@H]1O[C@@H](n2ncc3c(NC4CCCC4)nc(Cl)nc32)[C@H](O)[C@@H]1O)(C(=O)NS(=O)(=O)N1CCCC1)P(=O)(O)O` [Example 4], the IC50 worked out at 6 nM.

For `COC[C@@](OC[C@H]1O[C@@H](n2ncc3c(NC4CCCC4)nc(Cl)nc32)[C@H](O)[C@@H]1O)(C(=O)NS(=O)(=O)N1CCC1)P(=O)(O)O` [Example 5, ((S)-1-(Azetidine-1-sulfonamido)-2-(((2R,3S,4R,5R)-5-(6-chloro-4-(cyclopentylamino)-1H-pyrazolo[3,4-d]pyrimidin-1-yl)-3,4-dihydroxytetrahydrofuran-2-yl)methoxy)-3-methoxy-1-oxopropan-2-yl)phosphonic Acid], the IC50 was 2.3 nM.

On to `COC[C@](OC[C@H]1O[C@@H](n2ncc3c(NC4CCCC4)nc(Cl)nc32)[C@H](O)[C@@H]1O)(C(=O)NS(=O)(=O)N1CCC1)P(=O)(O)O` [Example 6, ((R)-1-(Azetidine-1-sulfonamido)-2-(((2R,3S,4R,5R)-5-(6-chloro-4-(cyclopentylamino)-1H-pyrazolo[3,4-d]pyrimidin-1-yl)-3,4-dihydroxytetrahydrofuran-2-yl)methoxy)-3-methoxy-1-oxopropan-2-yl)phosphonic Acid], for which the IC50 was 805 nM.

As for `COC[C@@](OC[C@H]1O[C@@H](n2ncc3c(NC4CCCC4)nc(Cl)nc32)[C@H](O)[C@@H]1O)(C(=O)NS(=O)(=O)N1CC[C@@H](O)C1)P(=O)(O)O` [Example 7], the IC50 was 6.2 nM.

Consider `COC[C@@](OC[C@H]1O[C@@H](n2ncc3c(NC4CCCC4)nc(Cl)nc32)[C@H](O)[C@@H]1O)(C(=O)NS(=O)(=O)N1CC[C@H](O)C1)P(=O)(O)O` [Example 9, ((S)-2-(((2R,3S,4R,5R)-5-(6-Chloro-4-(cyclopentylamino)-1H-pyrazolo[3,4-d]pyrimidin-1-yl)-3,4-dihydroxytetrahydrofuran-2-yl)methoxy)-1-(((S)-3-hydroxypyrrolidine)-1-sulfonamido)-3-methoxy-1-oxopropan-2-yl)phosphonic Acid], for which the IC50 is 3 nM.

The values are drawn from patent US20240140979A1, “HETEROCYCLIC INHIBITORS OF CD73 FOR TREATMENT OF DISEASE” (Teon Therapeutics, Inc., priority 2022, published 2024).
